# Reference: patent US20260200905A1, “MICROBIOCIDAL TETRAHYDROISOQUINOLINE DERIVATIVES” (SYNGENTA CROP PROTECTION AG, priority 2022, published 2026)
# Columns and labels:
# Format in all cases: cell-based
# [1] = test system: Monographella nivalis (Microdochium nivale); test: Monographella nivalis (Microdochium nivale) / liquid culture (foot rot cereals); conditions: growth inhibition photometrically 4 to 5 days after application, read-out: control of Monographella nivalis
# Method: (§1) Example B5: Monographella nivalis (Microdochium nivale)/Liquid Culture (Foot Rot Cereals) Conidia of the fungus from cryogenic storage are directly mixed into nutrient broth (PDB potato dextrose broth). After placing a (DMSO) solution of test compound into a microtiter plate (96-well format), the nutrient broth containing the fungal spores is added. The test plates are incubated at 24° C. and the inhibition of growth is determined photometrically 4 to 5 days after application.
# [2] = test system: Mycosphaerella graminicola (Septoria tritici); test: Mycosphaerella graminicola (Septoria tritici) / liquid culture (Septoria blotch); conditions: Zymoseptoria tritici, growth inhibition photometrically 4 to 5 days after application, read-out: control of Mycosphaerella graminicola
# Method: as §1, with “B12: Mycosphaerella graminicola (Septoria tritici)/Liquid” for “B5: Monographella nivalis (Microdochium nivale)/Liquid”, “(Septoria Blotch)” for “(Foot Rot Cereals)”
# [3] = test system: Mycosphaerella arachidis (Cercospora arachidicola); test: Mycosphaerella arachidis (Cercospora arachidicola) / liquid culture (early leaf spot); conditions: growth inhibition photometrically 4 to 5 days after application, read-out: control of Mycosphaerella arachidis
# Method: as §1, with “B6: Mycosphaerella arachidis (Cercospora arachidicola)/Liquid” for “B5: Monographella nivalis (Microdochium nivale)/Liquid”, “(Early Leaf Spot)” for “(Foot Rot Cereals)”
SMILES,inhibition of growth at 20 ppm [1] [%],inhibition of growth at 20 ppm [2] [%],inhibition of growth at 20 ppm [3] [%]
"O=C(c1cc(-c2ccc(F)cc2F)on1)N1Cc2cccc(F)c2C(c2cccnc2)C1 (stereo not drawn) [Compound P-9, [5-(2,4-difluorophenyl)isoxazol-3-yl]-[5-fluoro-4-(3-pyridyl)-3,4-dihydro-1H-isoquinolin-2-yl]methanone]",≥ 80,≥ 80,≥ 80
"O=C(c1cc(-c2ccc(F)cc2F)on1)N1Cc2ccccc2C(c2cnccc2Cl)C1 (stereo not drawn) [Compound P-24, [4-(4-chloro-3-pyridyl)-3,4-dihydro-1H-isoquinolin-2-yl]-[5-(2,4-difluorophenyl)isoxazol-3-yl]methanone]",,≥ 80,
"O=C(c1cc(-c2ccc(F)cc2F)on1)N1Cc2ccccc2C(c2cccnc2)C1 (stereo not drawn) [Compound P-5, [5-(2,4-difluorophenyl)isoxazol-3-yl]-[4-(3-pyridyl)-3,4-dihydro-1H-isoquinolin-2-yl]methanone]",≥ 80,≥ 80,≥ 80
"O=C(c1cc(-c2ccc(F)cc2F)on1)N1Cc2ccccc2C(c2cccnn2)C1 (stereo not drawn) [Compound P-36, [5-(2,4-difluorophenyl)isoxazol-3-yl]-(4-pyridazin-3-yl-3,4-dihydro-1H-isoquinolin-2-yl)methanone]",,≥ 80,
"O=C(c1cc(-c2ccc(F)cc2F)on1)N1Cc2ccccc2C(c2ccc(F)nc2)C1 (stereo not drawn) [Compound P-12, [5-(2,4-difluorophenyl)isoxazol-3-yl]-[4-(6-fluoro-3-pyridyl)-3,4-dihydro-1H-isoquinolin-2-yl]methanone]",≥ 80,≥ 80,
"Cc1c(C2CN(C(=O)c3cc(-c4ccccc4)on3)Cc3ccccc32)cc(C#N)n1C (stereo not drawn) [Compound P-26, 1,5-dimethyl-4-[2-(5-phenylisoxazole-3-carbonyl)-3,4-dihydro-1H-isoquinolin-4-yl]pyrrole-2-carbonitrile]",,≥ 80,
"Cc1c(C2CN(C(=O)c3nnc(-c4ccc(F)cc4F)s3)Cc3ccccc32)nc(Cl)n1C (stereo not drawn) [Compound P-11, [4-(2-chloro-1,5-dimethyl-imidazol-4-yl)-3,4-dihydro-1H-isoquinolin-2-yl]-[5-(2,4-difluorophenyl)-1,3,4-thiadiazol-2-yl]methanone]",,≥ 80,≥ 80
"Cc1nc(C2CN(C(=O)c3cc(-c4ccc(F)cc4F)on3)Cc3ccccc32)c(Cl)n1C (stereo not drawn) [Compound P-17, [4-(5-chloro-1,2-dimethyl-imidazol-4-yl)-3,4-dihydro-1H-isoquinolin-2-yl]-[5-(2,4-difluorophenyl)isoxazol-3-yl]methanone]",,≥ 80,
"Cc1nc(C2CN(C(=O)c3cc(-c4ccccc4)on3)Cc3ccccc32)c(Cl)n1C (stereo not drawn) [Compound P-31, [4-(5-chloro-1,2-dimethyl-imidazol-4-yl)-3,4-dihydro-1H-isoquinolin-2-yl]-(5-phenylisoxazol-3-yl)methanone]",,≥ 80,
"Cc1ncc(C2CN(C(=O)c3cc(-c4ccccc4)on3)Cc3ccccc32)cc1Cl (stereo not drawn) [Compound P-29, [4-(5-chloro-6-methyl-3-pyridyl)-3,4-dihydro-1H-isoquinolin-2-yl]-(5-phenylisoxazol-3-yl)methanone]",,≥ 80,
"Cc1ccncc1C1CN(C(=O)c2cc(-c3ccc(F)cc3F)on2)Cc2ccccc21 (stereo not drawn) [Compound P-14, [5-(2,4-difluorophenyl)isoxazol-3-yl]-[4-(4-methyl-3-pyridyl)-3,4-dihydro-1H-isoquinolin-2-yl]methanone]",,≥ 80,≥ 80
"Cc1c(C2CN(C(=O)c3cc(-c4ccc(F)cc4F)on3)Cc3ccccc32)cc(C#N)n1C (stereo not drawn) [Compound P-20, 4-[2-[5-(2,4-difluorophenyl)isoxazole-3-carbonyl]-3,4-dihydro-1H-isoquinolin-4-yl]-1,5-dimethyl-pyrrole-2-carbonitrile]",,≥ 80,
"CC1(c2cccnc2)CN(C(=O)c2cc(-c3ccccc3)on2)Cc2ccccc21 (stereo not drawn) [Compound P-32, [4-methyl-4-(3-pyridyl)-1,3-dihydroisoquinolin-2-yl]-(5-phenylisoxazol-3-yl)methanone]",,≥ 80,
"O=C(c1cc(-c2ccccc2)on1)N1Cc2ccccc2C(c2cnccc2Cl)C1 (stereo not drawn) [Compound P-30, [4-(4-chloro-3-pyridyl)-3,4-dihydro-1H-isoquinolin-2-yl]-(5-phenylisoxazol-3-yl)methanone]",,≥ 80,
"Cc1c(C2CN(C(=O)c3nnc(-c4ccc(F)cc4F)s3)Cc3ccccc32)cc(C#N)n1C (stereo not drawn) [Compound P-28, 4-[2-(5-(2,4-difluorophenyl)-1,3,4-thiadiazole-2-carbonyl]-3,4-dihydro-1H-isoquinolin-4-yl]-1,5-dimethyl-pyrrole-2-carbonitrile]",,≥ 80,
"Cn1c(Cl)nc(C2CN(C(=O)c3cc(-c4ccc(F)cc4F)on3)Cc3ccccc32)c1Cl (stereo not drawn) [Compound P-10, [4-(2,5-dichloro-1-methyl-imidazol-4-yl)-3,4-dihydro-1H-isoquinolin-2-yl]-[5-(2,4-difluorophenyl)isoxazol-3-yl]methanone]",,≥ 80,≥ 80
"Cc1nc(C2CN(C(=O)c3cc(-c4ccc(F)cc4F)on3)Cc3ccccc32)no1 (stereo not drawn) [Compound P-25, [5-(2,4-difluorophenyl)isoxazol-3-yl]-[4-(5-methyl-1,2,4-oxadiazol-3-yl)-3,4-dihydro-1H-isoquinolin-2-yl]methanone]",,≥ 80,
"Cn1cc(C2CN(C(=O)c3cc(-c4ccc(F)cc4F)on3)Cc3ccccc32)nn1 (stereo not drawn) [Compound P-35, [5-(2,4-difluorophenyl)isoxazol-3-yl]-[4-(1-methyltriazol-4-yl)-3,4-dihydro-1H-isoquinolin-2-yl]methanone]",,≥ 80,
"Cn1nc(C2CN(C(=O)c3cc(-c4ccc(F)cc4F)on3)Cc3ccccc32)cc1Br (stereo not drawn) [Compound P-21, [4-(5-bromo-1-methyl-pyrazol-3-yl)-3,4-dihydro-1H-isoquinolin-2-yl]-[5-(2,4-difluorophenyl)isoxazol-3-yl]methanone]",,≥ 80,
"O=C(c1cc(-c2ccccc2)on1)N1Cc2ccccc2C(c2ccc(F)nc2)C1 (stereo not drawn) [Compound P-34, [4-(6-fluoro-3-pyridyl)-3,4-dihydro-1H-isoquinolin-2-yl]-(5-phenylisoxazol-3-yl)methanone]",,≥ 80,
"Cn1cnc(C2CN(C(=O)c3cc(-c4ccc(F)cc4F)on3)Cc3ccccc32)n1 (stereo not drawn) [Compound P-33, [5-(2,4-difluorophenyl)isoxazol-3-yl]-[4-(1-methyl-1,2,4-triazol-3-yl)-3,4-dihydro-1H-isoquinolin-2-yl]methanone]",,≥ 80,
"Cc1cncc(C2CN(C(=O)c3cc(-c4ccc(F)cc4F)on3)Cc3ccccc32)c1 (stereo not drawn) [Compound P-22, [5-(2,4-difluorophenyl)isoxazol-3-yl]-[4-(5-methyl-3-pyridyl)-3,4-dihydro-1H-isoquinolin-2-yl]methanone]",,≥ 80,
"Cc1ncccc1C1CN(C(=O)c2cc(-c3ccc(F)cc3F)on2)Cc2ccccc21 (stereo not drawn) [Compound P-13, [5-(2,4-difluorophenyl)isoxazol-3-yl]-[4-(2-methyl-3-pyridyl)-3,4-dihydro-1H-isoquinolin-2-yl]methanone]",,≥ 80,≥ 80
"CC1(c2cccnc2)CN(C(=O)c2cc(-c3ccc(F)cc3F)on2)Cc2ccccc21 (stereo not drawn) [Compound P-27, [5-(2,4-difluorophenyl)isoxazol-3-yl]-[4-methyl-4-(3-pyridyl)-1,3-dihydroisoquinolin-2-yl]methanone]",,≥ 80,
"Cc1nc(C2CN(C(=O)c3cc(-c4ccc(F)cc4F)on3)Cc3ccccc32)nn1C (stereo not drawn) [Compound P-39, [5-(2,4-difluorophenyl)isoxazol-3-yl]-[4-(1,5-dimethyl-1,2,4-triazol-3-yl)-3,4-dihydro-1H-isoquinolin-2-yl]methanone]",,≥ 80,
"Cc1c(C2CN(C(=O)c3cc(-c4ccc(F)cc4F)on3)Cc3ccccc32)nc(Cl)n1C (stereo not drawn) [Compound P-16, [4-(2-chloro-1,5-dimethyl-imidazol-4-yl)-3,4-dihydro-1H-isoquinolin-2-yl]-[5-(2,4-difluorophenyl)isoxazol-3-yl]methanone]",,≥ 80,
"Cc1ncc(C2CN(C(=O)c3cc(-c4ccc(F)cc4F)on3)Cc3ccccc32)cc1Cl (stereo not drawn) [Compound P-23, [4-(5-chloro-6-methyl-3-pyridyl)-3,4-dihydro-1H-isoquinolin-2-yl]-[5-(2,4-difluorophenyl)isoxazol-3-yl]methanone]",,≥ 80,
"Cc1c(C2CN(C(=O)c3cc(-c4ccc(F)cc4)on3)Cc3ccccc32)cc(C#N)n1C (stereo not drawn) [Compound P-18, 4-[2-[5-(4-fluorophenyl)isoxazole-3-carbonyl]-3,4-dihydro-1H-isoquinolin-4-yl]-1,5-dimethyl-pyrrole-2-carbonitrile]",,≥ 80,
"O=C(c1cc(-c2ccc(F)cc2F)on1)N1Cc2ccccc2C(c2ccccn2)C1 (stereo not drawn) [Compound P-15, [5-(2,4-difluorophenyl)isoxazol-3-yl]-[4-(2-pyridyl)-3,4-dihydro-1H-isoquinolin-2-yl]methanone]",≥ 80,≥ 80,
